# Values joined by “and” are separate entries in the source; they are usually repeats but may differ in a detail not shown here. Identical values can stand only once. Like-named read-outs stand apart in the source and are kept apart here.
# How the values were obtained:
# HIV-1 strain DV = test: HIV-1 induced syncytia formation assay in SUP T1 cells; assay type: cell-based
# [1] = human, up to 236 ug/mL
# Vero = assay type: cell-based
# Protocol: (§1) Cytotoxicity Analysis. The cytotoxicity of T30177 was assayed as described above. […] The degree of cell proliferation was determined according to the manufacturer's instructions.
# (§2) Cytotoxicity Assays. The cytotoxicity of T30177 was determined using several different cell lines and primary human cells as described above. The cytotoxicity profile obtained for log phase growing cells was variable depending upon the cell line used, while the slower growing PBMCs, PBLs, and macrophages all tolerated the compound at concentrations exceeding 100 μM as monitored using the trypan blue exclusion, [^3H]thymidine uptake, or [^3H]leucine uptake techniques.
# NIH3T3 = assay type: cell-based
# Protocol: as §1, §2
# [2] = target: T1, recombinant RT (HIV-1BH10) (Human immunodeficiency virus type 1 group M subtype B, UniProt P03366); test: Reverse transcriptase enzyme inhibition assays; assay type: biochemical
# T1 construct: Purified recombinant RT (HIV-1BH10) was obtained from the University of Alabama; purchased University of Alabama, Center for AIDS research (obtained from)
# [3] = parameters: species or system cynomolgus monkeys; conditions: cynomolgus monkey, in vivo
# Protocol: Serum chemistry parameters. Serum chemistry was determined pre-study, on day 24 (one day after the 12th dose), and on day 37 in the recovery monkeys. The following were determined sodium, potassium, chloride, carbon dioxide, total bilirubin, direct bilirubin, indirect bilirubin alkaline phosphatase, lactate dehydrogenase, aspartate aminotransferase, alanine aminotransferase, gammaglutamyltransferase, calcium, phosphorus, glucose, urea nitrogen, creatinine, uric acid total protein, albumin, globulin, cholesterol and triglycerides. Serum chemistry was determined at Sierra Nevada Laboratories (Reno, Nev.).
# [4] = parameters: species or system HIV-positive human patients; conditions: human, in vivo
# Protocol: Four HIV-infected patients/group were dosed with AR177 at 0.75 mg/kg and […], and two HIV-infected patients were dosed so far with AR177 at 3.0 mg/kg by intravenous infusion over two hours.
# Blood was collected in EDTAp coated tubes at 0.25, 05, 1, 2, 2.05, 3, 3.5, 4, 6, 8, 11, 14, 26, 48, 98, and 122 hours following initiation of drug administration. Plasma was obtained by low speed centrifugation of the blood, and was stored frozen until analyzed by HPLC for AR177 concentration. The concentration of AR177 was determined in patient plasma using a validated anion-exchange HPLC method at the Division of Clinical Pharmacy of the University of California, San Francisco. This method has a limit of quantitation of 15 ng/mL in human plasma.
# Pharmacokinetic parameters were calculated using PKAnalyst software (MicroMath, Salt Lake City, Utah). The pharmacokinetic data best fit a two compartment model for all of the patients. The alpha and beta half-lives were almost identical in each of the patients, based on the software interpretation of the AR177 plasma concentration versus time plot (FIGS. 56-59). For this reason, only one half-life is reported.
# [5] = parameters: species or system cynomolgus monkeys; conditions: cynomolgus monkey, in vivo; remark: listed apart in the source
# Protocol: AR177 plasma HPLC analysis. Blood was taken for plasma analysis of AR177 just prior to, and at 5, 30 and 240 minutes following administration of doses 1 and 12. The plasma fraction was obtained by low speed centrifugation of blood, and stored at −20° C. until analyzed for the AR177 concentration. Plasma AR177 concentrations were assayed using an anion-exchange HPLC method on a Waters HPLC system with a 626 pump, 996 photodiode array detector, 717 autosampler and Millennium system software controlled by an NEC Image 466 computer. Buffer A was 0.1 M Tris base, 20% methanol, pH 12, and Buffer B was 0.1 M Tris base, 1.0 M NaBr, pH12. anion-exchange column tGen-Pak Fax column) was equilibrated at 80% buffer A/20% buffer B for 30 minutes before each HPLC run. Fifty microliters of plasma were analyzed per run. The elusion conditions were: a) five-minute isocratic run at 80% A/20% B, during which the majority of the plasma proteins eluted, b) 30-minute linear gradient to 30% A/70% B during which the AR177 eluted, c) five-minute isocratic run at 30% A/70% B. d) one minute linear gradient to 100% B. e) two- minute run at 100% B for initial column cleanup, and fl two-minute linear gradient to 70% A/30% B for the initial step in the clean-up method for HPLC column clean-up. […]
compound,measurement,setting,value
"Cc1cn([C@H]2C[C@H](N=[N+]=[N-])[C@@H](CO)O2)c(=O)[nH]c1=O [AZT, 3′-azido-3′-deoxythymidine]",reappearance of syncytium after removal of drug,"HIV-1 strain DV; 4 μM, removed day 4",two days after removal
same,IC50,"HIV-1 strain DV; Human immunodeficiency virus 1, 96 h, SUP T1, HIV-1DV, four days, read-out: IC50 Syn (syncytium inhibition)",0.04 µM
same,IC50,"HIV-1 strain DV; Human immunodeficiency virus 1, SUP-T1, size variants of I100-15, read-out: IC50 Syn.",0.02 µM
"5′-gtggtgggtgggtgggt-3′ [T30177] (GTGGTGGGTGGGTGGGT; phosphorothioate termini, further chemistry not given here)",complement CH50,[1],no effect
"5′-gtggtgggtgggtgggt-3′ (GTGGTGGGTGGGTGGGT; phosphorothioate termini, further chemistry not given here) [T30177]",CC50,Vero,> 100 µM
same,TC25,Vero,>100 µM
same,TC95,Vero,>100 µM
same,CC50,NIH3T3,> 100 µM
same,TC25,NIH3T3,>100 µM
same,TC95,NIH3T3,>100 µM
same,IC50 virus-induced cytopathogenicity,RSV (A2); RSV (A2),>200 µg/mL
same,MCC minimum concentration altering normal cell morphology,RSV (A2); RSV (A2) assay,>400 μg/mL
same,IC50,"[2]; depending upon the template, read-out: 50% inhibitory value, viral reverse transcriptase",1 to 10 µM
same,IC50,"[2]; template gapped duplex DNA, duplicate experiments, read-out: IC50 recombinant HIV-1 RT",> 5 µM and 8 µM and 10 µM
same,serum chemistry or urinalysis parameters,[3],no treatment-related changes
same,initial volume of distribution,[4]; 0.75 mg/kg,0.16 ± 0.05 L/kg
same,steady-state volume of distribution,[4]; 0.75 mg/kg,0.14 ± 0.05 L/kg
same,initial volume of distribution,[4]; 3 mg/kg,0.08 ± 0.00 L/kg
same,steady-state volume of distribution,[4]; 3 mg/kg,0.05 ± 0.03 L/kg
same,"metabolites (n−1, n−2) in plasma",[5],No metabolites
same,IC50 virus-induced cytopathogenicity,HSV-2 (G); HSV-2 (G),>200 µg/mL
same,MCC minimum concentration altering normal cell morphology,HSV-2 (G); HSV-2 (G) assay,400 μg/mL

# — patent US6355785B1, “Guanosine-rich oligonucleotide integrase inhibitors” (Aronex Pharmaceuticals, Inc., priority 1993, dated 2002)
